The results in this text go back to US9718781B2, “Methods and compounds for treating proliferative disorders and viral infections” (University College Dublin, National University of Ireland, …, priority 2012, dated 2017).

The target in one assay is T1, TPα (Homo sapiens, UniProt P21731).
T1 construct: expressed in transfected cells
T1 sequence (P21731 1-343): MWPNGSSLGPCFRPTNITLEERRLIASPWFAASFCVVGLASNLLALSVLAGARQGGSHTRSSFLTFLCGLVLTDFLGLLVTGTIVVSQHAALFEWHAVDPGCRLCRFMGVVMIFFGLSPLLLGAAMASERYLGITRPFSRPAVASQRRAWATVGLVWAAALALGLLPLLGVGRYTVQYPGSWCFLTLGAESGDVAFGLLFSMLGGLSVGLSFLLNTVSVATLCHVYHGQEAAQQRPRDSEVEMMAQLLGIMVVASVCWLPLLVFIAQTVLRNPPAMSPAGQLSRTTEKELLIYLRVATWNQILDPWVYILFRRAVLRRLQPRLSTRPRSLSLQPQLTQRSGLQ
The experiment in a line: U46619-induced [Ca2+]i mobilization in HEK.TPα cells. In kind it is cell-based. As to conditions: for remaining activity at 1 µM: read-out: Percentage of Control, TPα, 1 μM; for remaining activity at 10 µM: read-out: Percentage of Control, TPα, 10 μM. From the text: (§1) An appropriate functional test for the evaluation of the agonistic and/or antagonistic potency of the compounds of the invention is the determination of calcium flux. Both TPα and TPβ are coupled to the G-protein Gαq. Therefore, stimulation of these receptors ultimately leads to a release of intracellular calcium ([Ca^2+]i) from intracellular stores. Consequently, the determination of [Ca^2+]i flux represents an appropriate functional test for the evaluation of the agonistic/antagonistic potency of compounds of the invention. Calcium can be measured using a molecule characterized by the covalent combination of a Ca^2+ chelating group and a fluorophore group. The Ca^2+ binding properties of these indicators are formed by the presence of a tetracarboxylic acid core as found for example in EGTA (Ethylene Glycol bis(2-aminoethyl)Tetraacetic Acid). Binding of Ca^2+ produces a wavelength shift in either the excitation or emission fluorescence spectra or a change in the emission intensity. Whereas the Ca^2+ binding to EGTA is pH dependent, recent dyes are designed from an EGTA derivative, BAPTA (1,2-Bis(2-Aminophenoxy)ethane-N,N,N′,N′-Tetraacetic Acid). Loading of these dyes inside cells commonly uses esterified forms (acetoxymethyl ester), which are able to cross the cell membranes and are subsequently hydrolyzed by esterases inside the cell.
(§2) Estimation of [Ca^2+]i flux is calculated from the fluorescence signal (F). For calibration, the maximal fluorescence (Fmax, Ca^2+-saturated form of the dye) as well as minimal fluorescence (Fmin, Ca^2+-free form of the dye) must be determined. These parameters are determined usually in situ after the experiment, for example by subsequent addition to the mixture of a cell-disrupting agent that releases all Ca^2+ such as Triton X100 and a potent Ca^2+-chelating agent such as EGTA. After subtraction of background fluorescence, [Ca^2+]; flux can be calculated for non-ratiometric indicators.
(§3) Intracellular [Ca^2+]; fluxes were measured using a fluorescence plate reader following a modified protocol of Kassack et al., ‘Quantitative comparison of functional screening by measuring intracellular Ca^2+ with radioligand binding at recombinant human dopamine receptors’, AAPS Pharmsci, 2002, 4(4); 102-111, in cell lines (e.g. HEK293 or other cell type) endogenously-expressing or over-expressing either TPα, TPβ or any other receptor or protein to be screened.
(§4) By way of example, HEK 293 cells which have been grown for 3-4 days in normal growth media (minimum essential media containing 10% FBS and 2 mmol/1 L-glutamine), under normal growth conditions (37° C., in humidified 5% CO2 atmosphere) are washed and harvested in KREBs-HEPES buffer (118 mM NaCl, 4.7 mM KCl, 1.2 mM MgSO4, 1.2 mM KH2PO4, 4.2 mM NaHCO3, 11.7 mM D-glucose, 1.3 mM CaCl2, 10 mM HEPES, pH 7.4). Cells are then incubated with 3 μM Fluo-4 in KREBs-HEPES buffer containing 1% Pluoronic F-127, for 1 hr at 25° C. with agitation. Then, cells are washed in KREBs-HEPES buffer containing 0.5% BSA and re-suspended at a final concentration of 3×10^5 cells/ml. Approx. 5.4×10^4 cells per well are plated in a 96-well plate and pre-incubated with test compounds for 10 m prior to measuring the fluorescence intensity at 520 nm for 25 seconds at 1 s intervals to monitor baseline using the Fluoroskan Ascent. Agonist (e.g., 1 μM U46619) is injected into separate wells by the automatic pipettor and fluorescence intensity is monitored at 520 nm for 75 seconds at 1 s intervals. Thereafter, Triton X100 and EGTA are added sequentially where Fmax refers to maximal fluorescence intensity measured after permeabilization of the cells with 2% Triton X100 and Fmin refers to fluorescence intensity measured after addition of 1 mM EGTA.
(§5) The dye Fluo-4 has its excitation peak at 480 nm, in the visible spectra, which spare cells to be damaged by UV (340-360 nm) stimulation and reduces auto-fluorescence of cells. […]

A further assay deals with T2, TPβ (Homo sapiens, UniProt P21731).
T2 construct: expressed in transfected cells
T2 sequence (P21731 1-407 isoform P21731-2): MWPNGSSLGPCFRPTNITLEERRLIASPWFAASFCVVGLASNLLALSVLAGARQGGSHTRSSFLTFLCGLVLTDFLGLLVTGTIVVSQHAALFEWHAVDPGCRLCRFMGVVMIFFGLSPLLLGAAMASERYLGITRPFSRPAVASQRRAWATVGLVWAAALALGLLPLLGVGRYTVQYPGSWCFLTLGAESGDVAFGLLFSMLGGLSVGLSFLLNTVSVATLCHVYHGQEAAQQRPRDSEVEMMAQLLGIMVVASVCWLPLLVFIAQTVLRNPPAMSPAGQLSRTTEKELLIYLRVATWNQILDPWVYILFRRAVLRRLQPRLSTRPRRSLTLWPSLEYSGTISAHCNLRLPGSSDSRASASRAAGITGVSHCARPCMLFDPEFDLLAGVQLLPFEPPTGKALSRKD
The experiment in a line: U46619-induced [Ca2+]i mobilization in HEK.TPβ cells. As to conditions: 1 μM U46619; for remaining activity at 1 µM: read-out: Percentage of Control, TPβ, 1 μM; for remaining activity at 10 µM: read-out: Percentage of Control, TPβ, 10 μM. In kind it is cell-based.
Text: as §1, §2, §3, §4, §5

Where [1] appears, read: antagonist 1 μM, 1 μM U46619, % of agonist-induced response in vehicle-treated cells.
Setting [2] is: antagonist 10 μM, 1 μM U46619, % of agonist-induced response in vehicle-treated cells.
Where [3] appears, read: antagonist 1 μM, % of agonist-induced response in vehicle-treated cells.
Setting [4] is: antagonist 10 μM, % of agonist-induced response in vehicle-treated cells.

With `CCn1cc(-c2ccc(Oc3cccc(-c4ccc(OC)cc4)c3)c(S(=O)(=O)NC(=O)NC(C)(C)C)c2)cn1` [NTP6, N-(tert-butylcarbamoyl)-5-(1-ethyl-1H-pyrazol-4-yl)-2-((4′-methoxy-[1,1′-biphenyl]-3-yl)oxy)benzenesulfonamide], the remaining activity at 1 µM at TPα (setting [1]) was determined as 88.6 ± 14.5%; on TPβ (setting [3]) it was 94.4 ± 7.7%. Besides, the remaining activity at 10 µM is 45.1 ± 5.75% on TPα (setting [2]) and 57.4 ± 6.86% on TPβ (setting [4]).
Consider `COc1ccc(-c2cccc(Oc3ccc(C(=O)N4CC(O)C4)cc3S(=O)(=O)NC(=O)NC(C)(C)C)c2)cc1` [NTP23, N-(tert-butylcarbamoyl)-5-(3-hydroxyazetidine-1-carbonyl)-2-((4′-methoxy-[1,1′-biphenyl]-3-yl)oxy)benzenesulfonamide], for which the remaining activity at 1 µM came to 64.2 ± 2.89% at TPα (setting [1]) and 48.4 ± 2.75% at TPβ (setting [3]). In addition, the remaining activity at 10 µM on TPα (setting [2]) turned out to be 49.9 ± 7.61%; at TPβ (setting [4]), 20.4 ± 1.94%.
In the case of `COCCNC(=O)c1ccc(Oc2cccc(-c3ccc(OC)cc3)c2)c(S(=O)(=O)NC(=O)NC(C)(C)C)c1` [NTP14], the remaining activity at 1 µM at TPα (setting [1]) was 83.5 ± 9.26%; at TPβ (setting [3]), 86.4 ± 7.06%. Further, the remaining activity at 10 µM at TPα (setting [2]) amounted to 89.1 ± 9.1%; at TPβ (setting [4]) it was 59.4 ± 7.67%.
The like results for `COc1ccc(-c2cccc(Oc3ccc(C(=O)N4CCC4)cc3S(=O)(=O)NC(=O)NC(C)(C)C)c2)cc1` [NTP17] were, in that order, 83.1 ± 4.85%, 51.1 ± 1.13%, 59.5 ± 4.07% and 13.3 ± 5.91%.
What is called IC50 is the concentration at which inhibition is half-maximal. With `CCCCCNC(=O)NS(=O)(=O)c1cc([N+](=O)[O-])ccc1Oc1cccc(-c2ccc(OC)cc2)c1` [XLIII], the IC50 was determined as 13 µM on TPα (HEK.TPα cells, 1 μM U46619, Table 2, read-out: IC50 data for U46619-mediated [Ca2+]i mobilization, TPα) and 9.33 µM on TPβ (HEK.TPβ cells, Table 2, read-out: IC50 data for U46619-mediated [Ca2+]i mobilization, TPβ). Besides, the “TPα:TPβ Selectivity Ratio” value at TPα (IC50 TPα/IC50 TPβ) came out at 1.4.
For the compound `COc1ccc(-c2cccc(Oc3ccc(C#N)cc3S(=O)(=O)NC(=O)NC(C)(C)C)c2)cc1` [NTP33, N-(tert-butylcarbamoyl)-5-cyano-2-((4′-methoxy-[1,1′-biphenyl]-3-yl)oxy)benzene-sulfonamide], the “Percentage of Control, TPα, 1 μM” value at TPα (setting [1]) came to 103 ± 6.25%. Also, the “Percentage of Control, TPα, 10 μM” value at TPα (setting [2]) worked out at 82.4 ± 5.86%. For the same compound, the “Percentage of Control, TPβ, 1 μM” value on TPβ (setting [3]) was determined as 75.6 ± 6.46%. The “Percentage of Control, TPβ, 10 μM” value at TPβ (setting [4]) worked out at 34.5 ± 1.56%.
Consider `COc1ccc(-c2cccc(Oc3ccc(-c4ccncc4)cc3S(=O)(=O)NC(=O)NC(C)(C)C)c2)cc1` [NTP29], for which the remaining activity at 1 µM at TPα (setting [1]) was 113 ± 8.15%; on TPβ (setting [3]), 100 ± 4.69%. For the same compound, the remaining activity at 10 µM turned out to be 105 ± 8.03% on TPα (setting [2]) and 94.6 ± 3.58% on TPβ (setting [4]).
For `CNC(=O)c1ccc(Oc2cccc(-c3ccc(OC)cc3)c2)c(S(=O)(=O)NC(=O)NC(C)(C)C)c1` [NTP10] the same measures were 95.5 ± 4.25%, 96 ± 0.94%, 69.8 ± 1.73% and 54.7 ± 8.1%.
For the compound `COc1ccc(-c2cccc(Oc3ccc(C(=O)N(C)C)cc3S(=O)(=O)NC(=O)NC(C)(C)C)c2)cc1` [NTP2, 3-(N-(tert-butylcarbamoyl)sulfamoyl)-4-((4′-methoxy-[1,1′-biphenyl]-3-yl)oxy)-N,N-dimethylbenzamide], the values for the remaining activity at 1 µM at TPα (setting [1]) and at TPβ (setting [3]) were 85 ± 2.71% and 102 ± 3.59%, respectively. Besides, the values for the remaining activity at 10 µM on TPα (setting [2]) and at TPβ (setting [4]) were 54.9 ± 3.32% and 90.1 ± 2.78%, respectively.
The like results for `COc1ccc(-c2cccc(Oc3ccc(C(C)=O)cc3S(=O)(=O)NC(=O)NC(C)(C)C)c2)cc1` [NTP9, 5-acetyl-N-(tert-butylcarbamoyl)-2-((4′-methoxy-[1,1′-biphenyl]-3-yl)oxy)benzenesulfonamide] were, in that order, 85.9 ± 9.13%, 46.3 ± 7.33%, 70.4 ± 2.47% and 12.2 ± 1.03%.
For `COc1ccc(-c2cccc(Oc3ccc(C(N)=O)cc3S(=O)(=O)NC(=O)NC(C)(C)C)c2)cc1` [NTP13], the remaining activity at 1 µM on TPα (setting [1]) is 93.8 ± 13.9%; at TPβ (setting [3]), 74 ± 3.66%. For the same compound, the remaining activity at 10 µM on TPα (setting [2]) was determined as 95.2 ± 9.57%; on TPβ (setting [4]), 36.2 ± 0.52%.
